Assay results from article PMC7180728, “Novel Anthraquinone Compounds Inhibit Colon Cancer Cell Proliferation via the Reactive Oxygen Species/JNK Pathway” (Molecules, 2020).
Converted amounts (≈) assume the structure as drawn.

Key:
MCF-7 = experiment: MTT cell proliferation assay, MCF-7; type: cell-based; conditions: Homo sapiens, MCF7, MCF-7 breast cancer, 48 h
Protocol: (§1) The effects of the synthesized amide anthraquinone derivatives on the proliferative activity of eight human cancerous cell lines (EC9706, MCF-7, SGC-7901, HepG2, QBC939, HeLa, HCT116 and SW480) in addition to two normal human cell lines (colorectal FHC and liver HL7702) were evaluated using the standard MTT assay.
(§2) The human esophageal cancer cell line EC9706 was obtained from Cancer Hospital and Institute by Prof. Ming Rong Wang, Chinese Academy Medical of Sciences. The human colorectal carcinoma cell lines HCT116 and SW480, hepatoma cell line HepG2, cervical carcinoma cell line HeLa, breast cancer cell line MCF-7, gastric cancer cell line SGC-7901, cholangiocarcinoma cell line QBC939, normal fetal colon cell line FHC and liver cell line HL-7702 were obtained from the Cell Bank of the Shanghai Chinese Academy of Sciences. All cells were cultured in RPMI 1640 medium containing 100 U/mL penicillin and streptomycin and 10% fetal bovine serum and maintained at 37°C under a 5% CO2 atmosphere.
(§3) We analyzed the inhibitory effects of eight anthraquinone-amino acid derivatives on the proliferation of eight tumor cell lines and two normal cell lines in vitro using MTT assays. Cells were added to a 96-well plate with (5,000 cells per well in 100 µL RPMI-1640 medium). Cells were treated with different concentrations (10–100 μg/mL) of 8a–8h for 48 h and then incubated with 20 μL MTT (5 mg/mL) for another 4 h at 37°C. DMSO (150 μL) was then added to each well to dissolve the formazan crystals. The absorbance of each well was read at 490 nm on a microtiter plate ELISA reader. The mean values were obtained from a minimum of three parallel experiments. IC50 values were calculated.

[1] = tested on: caspase 9, cleaved caspase 9, caspase 3, cleaved caspase 3; experiment: Western blot, caspases; type: cell-based, human; conditions: HCT116, western blot
Source text: Caspases represent a key molecular group in the regulation of apoptosis. In caspases, there is an upstream and downstream relationship between the initiator of apoptosis and executioner. Caspase 3 is one of the key executers of apoptosis, as it is either partially or totally responsible for the proteolytic cleavage of many key proteins. For example, when caspase 9 is activated, it activates caspase 3, which ultimately triggers cell apoptosis. After detecting the expression of the corresponding Bcl-2 family proteins after 8a treatment by western blotting, we went on to detect the expression levels of PARP, caspase 9, cleaved caspase 9, caspase 3, and cleaved caspase 3 proteins. […] After 24 h of treatment with zVAD-FMK, cell viability is 93%.
The expression of signaling pathway-related proteins was detected by western blot analysis. Cell (1 × 10^6) were plated in 90-mm dishes and treated with 8a for 24 h. The cells were treated with NAC in the same way as in step 4.7. Resuspend the cells in Buffer A (1 mM EDTA, 1 mM PMSF, 0.28 μg/mL apotinin, 50 μg/mL leupeptin, 7 μg/mL pepstain A) and transferred to a 1 mL glass homogenizer and pull up and down 30 times in an ice bath. Cells were collected and centrifuged (1000 g × 10 min, 4 °C). […] Protein concentrations in the supernatant were determined by using a Minbio BCA protein assay kit. […]

QBC939 = experiment: MTT cell proliferation assay, QBC939; type: cell-based; conditions: Homo sapiens, QBC939 cholangiocarcinoma, 48 h
Protocol: as §1, §2, §3

Bcl-2, Bcl-xL and Bax = experiment: Western blot, Bcl-2 family proteins; type: cell-based, human; conditions: HCT116, western blot
Protocol: In addition, the expression of apoptosis-related proteins after 8a treatment was detected by western blot. Previous studies have shown that the Bcl-2 protein family is one of the most interesting oncogene-related proteins in programmed cell death. Therefore, we analyzed the levels of Bcl-2, Bcl-xL and Bax after 24 h of treatment with different concentrations (0, 10, 20, and 40 μg/mL) 8a. […] Moreover, the phosphorylation levels of Bcl-2 and Bcl-xL increased with increasing 8a concentration.
The expression of signaling pathway-related proteins was detected by western blot analysis. Cell (1 × 10^6) were plated in 90-mm dishes and treated with 8a for 24 h. The cells were treated with NAC in the same way as in step 4.7. Resuspend the cells in Buffer A (1 mM EDTA, 1 mM PMSF, 0.28 μg/mL apotinin, 50 μg/mL leupeptin, 7 μg/mL pepstain A) and transferred to a 1 mL glass homogenizer and pull up and down 30 times in an ice bath. Cells were collected and centrifuged (1000 g × 10 min, 4 °C). The obtained supernatant and precipitate were the crude cytoplasm and mitochondria, respectively. The cytosolic fraction was transferred to an ultra-ion tube and centrifuged (100,000g × 1 hr, 4 °C), and the resulting supernatant was the purified cytosolic fraction. The mitochondrial pellet was resuspended in Buffer B (1mM EGTA, 1mM PMSF, 0.28 μg/mL apotinin, 50 μg/mL leupeptin, 7 μg/mL pepstain A), centrifuged (10,000g × 10 min, 4 °C), and repeated 3 times. The mitochondria pellet was lysed in cell lysate buffer (1% NP-40, 2 μg/mL aprotinin, 2 μg/mL leupeptin, 1mM EDTA, 1mM Na vanadate). Protein concentrations in the supernatant were determined by using a Minbio BCA protein assay kit. Protein were separated by SDS-PAGE and transferred to a PVDF membrane. The membrane was blocked, and incubated with primary detection antibodies overnight at 4 °C. After washing three times with TBS-T, the membranes were incubated with the secondary detection antibody. […]

SGC-7901 = experiment: MTT cell proliferation assay, SGC-7901; type: cell-based, human; conditions: Homo sapiens, SGC-7901, 48 h, SGC-7901 gastric cancer, read-out: IC50
Protocol: as §1, §2, §3

[2] = tested on: mitochondrial membrane potential of HCT116 cells; experiment: Mitochondrial membrane potential, JC-1 flow cytometry; type: cell-based, human; conditions: 24 h
Protocol: Decreased mitochondrial membrane potential is a hallmark of early cell apoptosis, and a decrease in mitochondrial membrane potential leads to the release of certain mitochondrial proteins, such as cytochrome c, which mediate apoptosis. Therefore, we examined changes in mitochondrial membrane potential by flow cytometry. HCT116 cells were treated with 8a (10 or 20 μg/mL) for 24 h and then stained with 2 μg/mL JC-1 for 30 min prior to flow cytometric analysis. Green /orange fluorescence ratio of JC-1, compare with control, is 200% and 494.4%, respectively (Figure 8E,F). […] During apoptosis, mitochondrial cytochrome C is released into the cytoplasm and triggers the activation cascade of caspase. HCT116 cells were collected after 8a treatment, cytoplasmic protein and mitochondrial protein were extracted. The levels of cytochrome c in the cytoplasm and mitochondria were detected by Western blotting. After treatment of HCT116 cells with 8a (10 or 20 μg/mL) for 24 h, cytoplasmic levels of cytochrome c increased, while the levels in the mitochondria decreased.
The 1×10^4 cells were treated with different concentrations of 8a for 24 h. Cells were then incubated with 500 μL JC-1 ([…]) for 30 min at 37 °C in the dark. The level of mitochondrial membrane potential depolarization was measured by flow cytometry. Data were analyzed using the Cell Quest program (BD, New York, The United States).

[3] = with increasing 8a concentration

In the case of `CC(C)CC(NC(=O)c1ccc2c(c1[N+](=O)[O-])C(=O)c1ccccc1C2=O)C(=O)O` (centres unmarked) [Compound 8a, N-[(9,10-dihydro-1-nitro-9,10-dioxo-2-anthracenyl)carbonyl-leucine]], the IC50 (MCF-7) is reported as 33.34 ± 0.28 µg/mL (≈ 81.2 µM), the “expression of cleaved caspase 9 and cleaved caspase 3” value [1] is reported as “increased in a dose-dependent manner” and the “caspase 9 and caspase 3 expression levels” value [1, 3] is reported as “gradually decreased”. The IC50 (QBC939) was 43.13 ± 0.05 µg/mL (≈ 105 µM), the Bax expression (Bcl-2, Bcl-xL and Bax; 0, 10, 20, 40 μg/mL, 24 h) was “increased” and the “levels of Bcl-2 and Bcl-xL” value (Bcl-2, Bcl-xL and Bax; 0, 10, 20, 40 μg/mL, 24 h) was “gradually decreased”. For the same compound, the “phosphorylation levels of Bcl-2 and Bcl-xL” value (Bcl-2, Bcl-xL and Bax; [3]) was “increased”, the IC50 (SGC-7901) was 55.82 ± 0.16 µg/mL (≈ 136 µM) and the “Green/orange fluorescence ratio of JC-1, compared with control” value ([2]; 10 μg/mL) was 200%. For the same compound, the “Green/orange fluorescence ratio of JC-1, compared with control” value ([2]; 20 μg/mL) was 494.4% and the “mitochondrial membrane potential (in words)” value ([2]; 10 or 20 μg/mL) was “decreased the mitochondrial membrane potential in a dose-dependent manner”.
